Source: US7910579B2, “Benzoxazole derivatives” (Tohoku University, priority 2006, dated 2011)
Where two headings read alike, the source gives them in different places.

Legend:
[1] = Evaluation of Brain-Penetration and Bone-Seeking Properties of the Labeled Compound in Mouse; format: in vivo; settings: for Brain radioactivity / blood radioactivity / bone radioactivity: male ICR mouse, intravenous; for bone radioactivity: thighbone; for Bone-seeking property (bone accumulation) / Washout from brain: mouse; for Bone-seeking property (bone accumulation): 2 to 60 minutes after intravenous injection; for Washout from brain: compared with [^18F] BF-227
Protocol: Separated HPLC fractions containing [^18F] THK-702, [^18F] THK-761, [^18F] THK-763 or [^18F] BF-227 obtained by above mentioned synthesis of label were diluted with distilled water (about 20 mL), loaded thereon Sep-PaktC18 cartridge (produced by Waters Corporation). And the cartridge was washed by distilled water (5 to 10 mL), and labeled compound by EtOH (3 to 5 mL). A proper amount of 5% polysorbate 80-ethanol solution was added in the EtOH eluate and solvent was distilled away by a rotary evaporator with heating at 80° C. Obtained residue (mixture of the label compound and polysorbate 80) was dissolved in saline to prepare the labeled compound-containing saline. The radiochemical purity of chemical after the preparation was 95% or more.
Saline containing [^18F] BF-227, [^18F] THK-702, [^18F] THK-761 or [^18F] THK-763 was administered by intravenous injection through the tail vein of male ICR mouse (6 to 7 week), and brain-penetration and bone-seeking properties of each labeled compound was evaluated in the terms of seeking property of radioactivity in brain-tissue and bone tissue at 2, 30, 60 minutes after the injection.
The radiochemical purity of the saline containing the labeled compound used in the present invention was 95% or more, and the specific radioactivity was 18.5 to 148 GBq/μmol. 1.11 to 2.22 Mbq of the labeled compound per mouse was administrated. In evaluation of seeking property of radioactivity, the proportion of radioactivity in unit weight of evaluated tissue to all dosed radioactivity (% Injected Dose/g of tissue; % ID/g) was used as an index. Gamma counter (1480 WIZARD, produced by PerkinElmer, Inc.) was used in the measurement of radioactivity. Experimental procedures will be explained as follows. The labeled compound was administered by intravenous injection through the tail vein, 2, 30 and 60 minutes after the injection, cervical dislocation of the mouse was conducted under ether anesthesia, and blood was collected from heart rapidly. And then, whole brain (containing cerebellum and brain-stem) and thighbone of mouse were extracted. Moreover, radioactivity and the tissue weight of each sample were measured, the resulting data was used for calculating % ID/g.

[2] = system: histidine-requiring Salmonella typhimurium TA100 and TA98 strains; assay: Mutagenicity Test (reverse mutation test); format: cell-based; settings: for Relative activity (mutagenicity): irrespective of the absence or presence of S9mix; for Relative Activity in the presence of S9Mix / Relative Activity in the absence of S9Mix: reverse mutation test
Protocol: In view of their use, it is desirable that the compounds of the invention have no mutagenicity or have little mutagenicity to a level causing no problem. For investigating the gene mutagenesis of the compounds of the invention, herein carried out was a reverse mutation test with histidine-requiring Salmonella typhimurium TA100 and TA98 strains. Two tests were carried out. One is a test for dose determination test; and the other is for mutagenicity.
The test methods and the mutagenicity of the compounds of the invention are mentioned below. In the dose determination test, six doses of 0.160, 0.800, 4.00, 20.0, 100 and 500 μg/plate (common ratio 5) were tried.
As a result of the dose determination test, when the mutagenicity of the test compound was admitted, then the actual test for mutagenicity was carried out, using the dose capable of giving an accurate dose-reaction curve. When no mutagenicity of the test compound was admitted in the dose determination test and when the growth inhibition of the test cells was admitted therein, then the dose to present the growth inhibition was taken as the maximum dose; and when the growth inhibition was not admitted, then a dose of 5000 μg/plate was taken as the maximum dose. With that, the actual test for mutagenicity was carried out on the level of 6 doses (common ratio 2).
First, a test compound was dissolved or suspended in DMSO, then diluted in order to prepare test compound liquids having a varying concentration.
100 μl of a test compound liquid or a negative control (DMSO) solution was put into a sterilized test tube. Then, for the case in the absence of a metabolic activation system (−S9mix), 500 μl of 0.1 mol/liter sodium-phosphate buffer (pH 7.4) was added to it; and for the case in the presence of a metabolic activation system (+S9mix), 500 μl of S9mix was added to it.
Next, 100 μl of the test strain suspension that had been cultivated with shaking at 37° C. for 8 hours was added to it, and preincubated in a shaking thermostat at 37° C. for 20 minutes. After shaken, 2 ml of top agar was added to it, and the contents were mixed.
Next, the mixture was poured onto a minimal glucose agar plate medium (plate) and spread uniformly thereon, then the top agar was solidified, and the plate was transferred into a thermostat and incubated at 37° C. for 48 hours.
Then, the number of the colonies grown through reverse mutation was counted.
For counting it, […]. After area correction and miss-counting correction, the number of the colonies was computed. When the colony analyzer could not be used owing to the deposition of the test compound or the cell growth inhibition, then the number of the colonies was counted with the naked eye.
In case where the number of the colonies through reverse mutation increased two times or more that of the negative control and where the dose dependency or the reproducibility of the increase was admitted, then the tested sample was decided as positive. When the sample was is decided as positive, then the relative activity that indicates the relative comparative value of the intensity of the mutagenicity of the test compound was obtained according to the following formula: Relative Activity={(number of colonies per plate having the concentration)−(number of colonies per negative control plate)}/the value of concentration (mg/plate).

[3] = target: T1, Amyloid β protein 1-40 (Homo sapiens, UniProt P05067); assay: Fluorescence Congo Red Method; format: binding; settings: compound 10 μM, amyloid β protein 5 μM; for activity at 10 µM: 1 h
T1 construct: Amyloid β protein 1-40 (bought from Peptide Laboratory); purchased Peptide Laboratory
T1 sequence (P05067 672-711): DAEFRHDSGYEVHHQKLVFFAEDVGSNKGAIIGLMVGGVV
Protocol: Next described is a screening method for the compounds of the invention. Some of the compounds of the invention could not be screened according to a Thioflavin T method, since their fluorescence wavelength overlaps with that of Thioflavin T. For such compounds, the following novel screening method was introduced. (1) Amyloid β protein 1-40 (bought from Peptide Laboratory) was dissolved in a phosphate buffer (pH 7.4) and left at 37° C. for 4 days. (2) 50 μl of Congo red dissolved in the buffer was applied to a 96-well microplate (final concentration, 0.1, 0.3, 1 μM). (3) 100 μl of amyloid β protein was added to it (final concentration 5 μM), and left as such for 30 minutes. (4) 100 μl of a test compound dissolved in the buffer was added to it (final concentration, 10 μM, and left as such for 60 minutes. (5) Using a fluorescence microplate reader (Spectra Max 190 by Molecular Device), the sample was analyzed at the optimum exciting wavelength and the test wavelength that had been previously determined. (6) The fluorescence intensity in the presence of the test compound, amyloid β protein and Congo red is represented by A; that in the presence of the test compound and Congo red is by B; that in the presence of the test compound and amyloid β protein is by C; and that in the presence of only the test compound is by D. The β structure recognition of the test compound is computed according to the following formula: β structure recognition (%) of test compound={(A−B)/(C−D)}×100. (7) It may be said that the test compound having a higher β structure recognition percentage may have higher binding specificity to amyloid β protein.

| Compound | Brain radioactivity ([1]; 2 min) [% ID/g] | blood radioactivity ([1]; 2 min) [% ID/g] | bone radioactivity ([1]; 2 min) [% ID/g] | Brain radioactivity ([1]; 30 min) [% ID/g] | blood radioactivity ([1]; 30 min) [% ID/g] | bone radioactivity ([1]; 30 min) [% ID/g] | Brain radioactivity ([1]; 60 min) [% ID/g] | blood radioactivity ([1]; 60 min) [% ID/g] | bone radioactivity ([1]; 60 min) [% ID/g] | Bone-seeking property (bone accumulation) [1] | Washout from brain [1] | further results |
| --- | --- | --- | --- | --- | --- | --- | --- | --- | --- | --- | --- | --- |
| CN(C)c1ncc(C=Cc2nc3ccc(OCCF)cc3o2)s1 [[^18F]BF-227, 2-[2-(2-dimethylaminothiazol-5-yl)ethenyl]-6-(2-fluoroethoxy)benzoxazol, reference compound] | 6.05 | 2.93 | 1.59 | 1.91 | 2.14 | 4.38 | 1.67 | 2.09 | 7.04 | significant time-dependent bone-seeking property after the injection has been found | – | – |
| CN(C)c1ncc(/C=C/c2nc3ccc(OC(CO)CF)cc3o2)s1 (stereo not shown) [[^18F]THK-763] | 4.64 | 3.65 | 1.84 | 0.53 | 1.19 | 0.88 | 0.28 | 0.64 | 1.38 | have not found | excellent characteristics in washout from brain more than [^18F] BF-227 | – |
| CC1(C)c2ccccc2N2CCC(=O)NC21/C=C/c1ccc(N2CCOCC2)cc1 (stereo not shown) [THK-336] | – | – | – | – | – | – | – | – | – | – | – | Relative activity (mutagenicity) [2]: minus; Relative Activity in the presence of S9Mix [2]: minus; Relative Activity in the absence of S9Mix [2]: minus |
| OCC(CF)Oc1ccc2nc(/C=C/c3cnc(N4CCSCC4)s3)oc2c1 (stereo not shown) [THK-767, (E)-6-[(1-fluoromethyl-2-hydroxy)ethoxy]-2-[2-(2-thiomorpholinothiazol-5-yl)ethenyl]benzoxazole] | – | – | – | – | – | – | – | – | – | – | – | activity at 10 µM ([3]; Congo red 0.1 μM, read-out: Binding Percentage of Compound in the presence of 0.1 μM CR): 60%; activity at 10 µM ([3]; Congo red 0.3 μM, read-out: Binding Percentage of Compound in the presence of 0.3 μM CR): 29.9%; activity at 10 µM ([3]; Congo red 1 μM, read-out: Binding Percentage of Compound in the presence of 1 μM CR): 15.9% |
| N#CC(C#N)=Cc1ncc(/C=C/c2nc3ccc(OCC(CO)CF)cc3o2)s1 (stereo not shown) [THK-683, (E)-2-[2-(2,2-dicyano-ethenylthiazol-5-yl)ethenyl]-6-[(2-fluoromethyl-3-hydoxy)propoxy]benzoxazole] | – | – | – | – | – | – | – | – | – | – | – | Relative activity (mutagenicity) [2]: minus; Relative Activity in the presence of S9Mix [2]: minus; Relative Activity in the absence of S9Mix [2]: minus |
| CNc1ncc(/C=C/c2nc3ccc(OC(CO)CF)cc3o2)s1 (stereo not shown) [[^18F]THK-761] | 1.67 | 3.16 | 1.36 | 0.22 | 0.78 | 0.88 | 0.13 | 0.34 | 0.95 | have not found | excellent characteristics in washout from brain more than [^18F] BF-227 | – |
| Cc1ccc2c(c1)sc(-c1ccc(N(C)C)cc1)[n+]2C.[Cl-] [Thioflavin T, reference compound] | – | – | – | – | – | – | – | – | – | – | – | Binding Percentage of Compound in the presence of 0.1 μM CR ([3]; Congo red 0.1 μM): 49.4%; Binding Percentage of Compound in the presence of 0.3 μM CR ([3]; Congo red 0.3 μM): 22.3%; Binding Percentage of Compound in the presence of 1 μM CR ([3]; Congo red 1 μM): 9.3% |
| OCC(CF)Oc1ccc2nc(/C=C/c3cnc(N4CCOCC4)s3)oc2c1 (stereo not shown) [[^18F]THK-702] | 4.15 | 3.34 | 1.95 | 0.53 | 1.06 | 0.92 | 0.35 | 0.67 | 1.16 | have not found | excellent characteristics in washout from brain more than [^18F] BF-227 | – |
